In publication PMC8132112 (Cancer letters, 2018):

Target: ABCB1 (Homo sapiens, UniProt P08183)
Sequence (P08183 whole entry): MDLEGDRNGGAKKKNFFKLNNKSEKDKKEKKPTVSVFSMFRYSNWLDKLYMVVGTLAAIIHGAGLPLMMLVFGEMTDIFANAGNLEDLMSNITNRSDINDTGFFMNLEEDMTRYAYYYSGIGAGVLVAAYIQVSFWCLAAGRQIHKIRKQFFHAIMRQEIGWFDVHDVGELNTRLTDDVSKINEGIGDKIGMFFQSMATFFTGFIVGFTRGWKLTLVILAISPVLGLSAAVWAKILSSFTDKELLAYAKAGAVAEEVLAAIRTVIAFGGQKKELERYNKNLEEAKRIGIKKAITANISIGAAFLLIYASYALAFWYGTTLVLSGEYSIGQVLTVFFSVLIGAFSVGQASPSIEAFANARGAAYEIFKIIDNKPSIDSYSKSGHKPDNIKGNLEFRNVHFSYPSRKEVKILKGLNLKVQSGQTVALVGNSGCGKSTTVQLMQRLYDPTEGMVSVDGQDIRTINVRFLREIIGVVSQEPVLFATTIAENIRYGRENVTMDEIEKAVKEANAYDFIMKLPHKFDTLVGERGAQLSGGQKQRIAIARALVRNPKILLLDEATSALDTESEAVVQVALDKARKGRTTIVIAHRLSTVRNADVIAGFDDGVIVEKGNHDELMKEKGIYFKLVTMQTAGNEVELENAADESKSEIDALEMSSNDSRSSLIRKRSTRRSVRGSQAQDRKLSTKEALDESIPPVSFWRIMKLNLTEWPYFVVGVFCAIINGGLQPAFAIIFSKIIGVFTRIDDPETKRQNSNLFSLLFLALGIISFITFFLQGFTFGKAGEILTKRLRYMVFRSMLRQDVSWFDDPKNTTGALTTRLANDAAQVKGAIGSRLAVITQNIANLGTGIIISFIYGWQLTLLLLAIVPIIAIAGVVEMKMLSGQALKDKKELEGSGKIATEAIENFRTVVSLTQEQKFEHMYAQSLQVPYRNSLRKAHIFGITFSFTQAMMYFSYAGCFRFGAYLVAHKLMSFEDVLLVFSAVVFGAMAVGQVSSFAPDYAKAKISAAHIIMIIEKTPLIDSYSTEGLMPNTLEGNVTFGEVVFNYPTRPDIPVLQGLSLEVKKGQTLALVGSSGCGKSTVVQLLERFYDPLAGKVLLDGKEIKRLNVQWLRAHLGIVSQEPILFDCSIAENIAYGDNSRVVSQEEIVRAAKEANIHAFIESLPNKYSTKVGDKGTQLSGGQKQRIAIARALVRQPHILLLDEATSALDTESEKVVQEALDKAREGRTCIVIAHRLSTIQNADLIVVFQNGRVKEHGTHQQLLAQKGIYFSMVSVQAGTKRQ

SMILES: CC(=O)O[C@H]1C(=O)[C@@]2(C)[C@H]([C@H](OC(=O)c3ccccc3)[C@]3(O)C[C@H](OC(=O)[C@H](O)[C@@H](NC(=O)c4ccccc4)c4ccccc4)C(C)=C1C3(C)C)[C@]1(OC(C)=O)CO[C@@H]1C[C@@H]2O [paclitaxel]
- radiolabelled substrate efflux from ABCB1-overexpressing cells: selonsertib significantly decreased the efflux of [^3H]-paclitaxel in ABCB1-overexpressing cell lines KB-C2 and SW620/Ad300
